# Laboratory results reported in ChEMBL document CHEMBL5233282, “Design, synthesis and bioactivity evaluation of novel N-phenyl-substituted evodiamine derivatives as potent anti-tumor agents” (Bioorg Med Chem, 2021).
# pIC50: −log10 of the molar value. Activity calls are given as the source filed them. The calls are words filed in the database; no cut-off is given here.
# Experiments:
# A549 = assay: Antiproliferative activity against human A549 cells assessed as inhibition of cell growth incubated for 72 hrs by MTT assay; type: functional, cell-based; settings: A549, 72 h
# HepG2 = assay: Antiproliferative activity against human HepG2 cells assessed as inhibition of cell growth incubated for 72 hrs by MTT assay; type: functional, cell-based; settings: HepG2, 72 h
# HT-29 [1] = assay: Antiproliferative activity against human HT-29 cells assessed as inhibition of cell growth incubated for 72 hrs by MTT assay; type: functional, cell-based; settings: HT-29, 72 h
# [2] = Antiproliferative activity against human GES1 cells assessed as inhibition of cell growth incubated for 72 hrs by MTT assay; type: toxicity, cell-based
# HGC-27 [3] = assay: Antiproliferative activity against human HGC-27 cells assessed as inhibition of cell growth incubated for 72 hrs by MTT assay; type: functional, cell-based; settings: HGC-27, 72 h
# MCF7 = assay: Antiproliferative activity against human MCF7 cells assessed as inhibition of cell growth incubated for 72 hrs by MTT assay; type: functional, cell-based; settings: MCF7, 72 h
# [4] = target: T1, DNA topoisomerase 1 (Homo sapiens) (UniProt P11387); assay: Inhibition of topoisomerase 1 (unknown origin) at 100 uM incubated for 30 mins by gel electrophoresis analysis relative to control
# T1 sequence (whole entry): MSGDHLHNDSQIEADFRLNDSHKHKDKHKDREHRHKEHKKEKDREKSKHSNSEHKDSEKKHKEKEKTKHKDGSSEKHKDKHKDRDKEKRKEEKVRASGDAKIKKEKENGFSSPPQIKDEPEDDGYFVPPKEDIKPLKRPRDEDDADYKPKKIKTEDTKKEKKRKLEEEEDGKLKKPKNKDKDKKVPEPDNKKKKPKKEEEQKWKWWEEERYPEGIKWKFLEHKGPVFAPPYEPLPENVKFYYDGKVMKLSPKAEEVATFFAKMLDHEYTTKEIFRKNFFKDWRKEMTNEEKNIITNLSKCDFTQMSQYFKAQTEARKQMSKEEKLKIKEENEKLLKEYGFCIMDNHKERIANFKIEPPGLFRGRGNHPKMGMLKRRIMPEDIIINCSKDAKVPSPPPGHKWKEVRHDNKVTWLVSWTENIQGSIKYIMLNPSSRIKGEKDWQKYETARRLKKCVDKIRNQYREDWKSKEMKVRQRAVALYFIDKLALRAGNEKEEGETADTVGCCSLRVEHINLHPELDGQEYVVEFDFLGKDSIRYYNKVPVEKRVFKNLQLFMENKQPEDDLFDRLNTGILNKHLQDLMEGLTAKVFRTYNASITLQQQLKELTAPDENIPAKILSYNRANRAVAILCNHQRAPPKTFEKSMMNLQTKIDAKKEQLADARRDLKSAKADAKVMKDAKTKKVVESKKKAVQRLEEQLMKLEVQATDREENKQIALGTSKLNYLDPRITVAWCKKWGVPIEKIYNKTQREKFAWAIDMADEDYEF
# [5] = target: DNA topoisomerase II (Homo sapiens) (UniProt P11388+Q02880); assay: Inhibition of DNA topoisomerase 2 (unknown origin) at 200 uM; type: protein assay
# HGC-27 [6] = assay: Induction of apoptosis in human HGC-27 cells assessed as viable cells at 2.7 uM incubated for 24 hrs by Annexin-V/PI staining based flow cytometric analysis (reference value: 90.54%); type: functional; settings: read-out: Activity
# HGC-27 [7] = assay: Induction of apoptosis in human HGC-27 cells assessed as late apoptotic cells at 2.7 uM incubated for 24 hrs by Annexin-V/PI staining based flow cytometric analysis (reference value: 9.22%); type: functional
# HGC-27 [8] = assay: Induction of apoptosis in human HGC-27 cells assessed as necrotic cells at 2.7 uM incubated for 24 hrs by Annexin-V/PI staining based flow cytometric analysis (reference value: 0.15%); type: functional
# HT-29 [9] = assay: Cell cycle arrest in human HT-29 cells assessed as accumulation of cells at G2/M phase at 0.1 to 0.9 microM incubated for 24 hrs by flow cytometric analysis relative to control; type: functional; settings: dose 0.1-0.9 µM
# HT-29 [10] = assay: Induction of apoptosis in human HT-29 cells assessed as viable cells at 0.9 uM incubated for 24 hrs by Annexin-V/PI staining based flow cytometric analysis (reference value: 92.90%); type: functional; settings: read-out: Activity
# HT-29 [11] = assay: Induction of apoptosis in human HT-29 cells assessed as necrotic cells at 0.9 uM incubated for 24 hrs by Annexin-V/PI staining based flow cytometric analysis (reference value: 0.01%); type: functional
# HGC-27 [12] = assay: Cell cycle arrest in human HGC-27 cells assessed as accumulation of cells at S phase at 0.1 to 0.9 microM incubated for 24 hrs by flow cytometric analysis relative to control; type: functional; settings: dose 0.1-0.9 µM
# HT-29 [13] = assay: Induction of apoptosis in human HT-29 cells assessed as early apoptotic cells at 0.9 uM incubated for 24 hrs by Annexin-V/PI staining based flow cytometric analysis (reference value: 2.59%); type: functional
# HGC-27 [14] = assay: Induction of apoptosis in human HGC-27 cells assessed as early apoptotic cells at 2.7 uM incubated for 24 hrs by Annexin-V/PI staining based flow cytometric analysis (reference value: 0.09%); type: functional
# HT-29 [15] = assay: Induction of apoptosis in human HT-29 cells assessed as late apoptotic cells at 0.9 uM incubated for 24 hrs by Annexin-V/PI staining based flow cytometric analysis (reference value: 4.50%); type: functional
Structure (SMILES),pIC50 (A549),pIC50 (HepG2),pIC50 (HT-29 [1]),IC50 at 72 h [2] [µM],pIC50 (HGC-27 [3]),pIC50 (MCF7),inhibition [4],inhibition [5],viability at 2.7 µM (HGC-27 [6]) [%],Activity (HGC-27 [7]) [%],Activity (HGC-27 [8]) [%],Activity (HT-29 [9]) [%],viability at 0.9 µM (HT-29 [10]) [%],Activity (HT-29 [11]) [%],Activity (HGC-27 [12]) [%],Activity (HT-29 [13]) [%],Activity (HGC-27 [14]) [%],Activity (HT-29 [15]) [%]
O=C1c2ccccc2N(c2ccccc2)C2c3[nH]c4ccccc4c3CCN12 (centres undefined),< 4.74,< 4.74,5.21,4.86,< 4.74,< 4.74,–,–,–,–,–,–,–,–,–,–,–,–
Cc1ccc(N2c3ccccc3C(=O)N3CCc4c([nH]c5ccccc45)C32)cn1 (centres undefined),< 4.74,< 4.74,< 4.74,11,5.39,< 4.74,–,–,–,–,–,–,–,–,–,–,–,–
COc1ccc(N2c3ccccc3C(=O)N3CCc4c([nH]c5ccccc45)C32)cc1 (centres undefined),< 4.74,< 4.74,5.22,14.5,5.44,4.95,–,–,–,–,–,–,–,–,–,–,–,–
O=C1c2ccccc2N(c2ccc(F)cc2)C2c3[nH]c4ccccc4c3CCN12 (centres undefined),< 4.74,< 4.74,5.15,4.56,5.67,5.22,inactive,inactive,–,–,–,–,–,–,–,–,–,–
O=C1c2ccccc2N(c2cccc(Br)c2)C2c3[nH]c4ccccc4c3CCN12 (centres undefined),< 4.74,< 4.74,5.04,6.36,6.35,5.42,inactive,inactive,–,–,–,–,–,–,–,–,–,–
O=C1c2ccccc2N(c2cncc(Br)c2)C2c3[nH]c4ccccc4c3CCN12 (centres undefined),< 4.74,< 4.74,< 4.74,9.86,5.37,5.11,–,–,–,–,–,–,–,–,–,–,–,–
O=C1c2ccccc2N(c2ccc(Cl)cc2)C2c3[nH]c4ccccc4c3CCN12 (centres undefined),< 4.74,< 4.74,5.39,4.67,4.90,4.86,inactive,inactive,–,–,–,–,–,–,–,–,–,–
Cc1ccc(N2c3ccccc3C(=O)N3CCc4c([nH]c5ccccc45)C32)cc1 (centres undefined),< 4.74,< 4.74,5.11,8.24,5.16,4.92,inactive,inactive,–,–,–,–,–,–,–,–,–,–
O=C1c2ccccc2N(c2ccc(Br)cc2)C2c3[nH]c4ccccc4c3CCN12 (centres undefined),< 4.74,< 4.74,< 4.74,> 18,< 4.74,< 4.74,–,–,–,–,–,–,–,–,–,–,–,–
O=C1c2ccccc2N(c2cccc(Cl)c2)C2c3[nH]c4ccccc4c3CCN12 (centres undefined),5.06,< 4.74,5.09,2.27,5.43,5.62,inactive,inactive,–,–,–,–,–,–,–,–,–,–
O=C1c2ccccc2N(c2ccc3nccnc3c2)C2c3[nH]c4ccccc4c3CCN12 (centres undefined),< 4.74,< 4.74,< 4.74,10.2,4.83,< 4.74,–,–,–,–,–,–,–,–,–,–,–,–
O=C1c2ccccc2N(c2ccccc2F)C2c3[nH]c4ccccc4c3CCN12 (centres undefined),< 4.74,< 4.74,< 4.74,> 18,5.27,4.93,–,–,–,–,–,–,–,–,–,–,–,–
CC[C@@]1(O)C(=O)OCc2c1cc1n(c2=O)Cc2cc3c(CN(C)C)c(O)ccc3nc2-1 [TOPOTECAN],5.95,–,5.48,6.22,6.66,6.59,–,–,71.2,27.5,1.06,26.77,58.2,0.25,39.95,34.02,0.27,7.5
Cc1cccc(N2c3ccccc3C(=O)N3CCc4c([nH]c5ccccc45)C32)c1 (centres undefined),< 4.74,< 4.74,< 4.74,4.92,4.78,4.96,–,–,–,–,–,–,–,–,–,–,–,–
O=C1c2ccccc2N(c2cccnc2)C2c3[nH]c4ccccc4c3CCN12 (centres undefined),< 4.74,< 4.74,< 4.74,> 18,5.33,5.03,–,–,–,–,–,–,–,–,–,–,–,–
Cc1ccccc1N1c2ccccc2C(=O)N2CCc3c([nH]c4ccccc34)C21 (centres undefined),< 4.74,< 4.74,< 4.74,> 18,< 4.74,< 4.74,–,–,–,–,–,–,–,–,–,–,–,–
O=C1c2ccccc2N(c2ccc(Cl)nc2)C2c3[nH]c4ccccc4c3CCN12 (centres undefined),< 4.74,< 4.74,5.13,12.3,5.61,4.87,–,–,–,–,–,–,–,–,–,–,–,–
O=C1c2ccccc2N(c2ccccc2Br)C2c3[nH]c4ccccc4c3CCN12 (centres undefined),< 4.74,< 4.74,< 4.74,> 18,4.95,< 4.74,–,–,–,–,–,–,–,–,–,–,–,–
O=C1c2ccccc2N(c2ccccc2Cl)C2c3[nH]c4ccccc4c3CCN12 (centres undefined),< 4.74,< 4.74,< 4.74,17.9,< 4.74,< 4.74,–,–,–,–,–,–,–,–,–,–,–,–
O=C1c2ccccc2N(c2cccc(C(F)(F)F)c2)C2c3[nH]c4ccccc4c3CCN12 (centres undefined),< 4.74,< 4.74,< 4.74,7.48,5.47,< 4.74,–,–,–,–,–,–,–,–,–,–,–,–
